According to patent US20260374754A1, “N-((ISOQUINOLIN-6-YL)METHYL)-1H-PYRAZOLE-4-CARBOXAMIDE DERIVATIVES AS PLASMA KALLIKREIN INHIBITORS FOR THE TREATMENT OF HEREDITARY ANGIODEMA” (Takeda Pharmaceutical Company Limited, priority 2022, published 2026):
Where two headings read alike, the source gives them in different places.

Key:
[1] = target: human activated kallikrein enzyme (Homo sapiens, UniProt P03952); assay: Inhibition of human activated plasma kallikrein, fluorogenic PFR-AMC substrate, 500 pM enzyme format; format: biochemical; conditions: 300 μM PFR-AMC, 30 min preincubation, 10 min room temperature, pH 7.5
Chain of human activated kallikrein enzyme (P03952 391-638 limits assumed): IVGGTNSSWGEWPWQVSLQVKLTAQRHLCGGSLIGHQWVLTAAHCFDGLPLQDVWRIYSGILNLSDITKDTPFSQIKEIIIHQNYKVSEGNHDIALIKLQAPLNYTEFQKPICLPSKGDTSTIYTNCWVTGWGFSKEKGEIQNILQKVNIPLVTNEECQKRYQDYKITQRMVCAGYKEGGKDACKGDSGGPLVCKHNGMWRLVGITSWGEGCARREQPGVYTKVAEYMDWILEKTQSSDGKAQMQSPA
Chain of human activated kallikrein enzyme (P03952 20-390 partner limits assumed): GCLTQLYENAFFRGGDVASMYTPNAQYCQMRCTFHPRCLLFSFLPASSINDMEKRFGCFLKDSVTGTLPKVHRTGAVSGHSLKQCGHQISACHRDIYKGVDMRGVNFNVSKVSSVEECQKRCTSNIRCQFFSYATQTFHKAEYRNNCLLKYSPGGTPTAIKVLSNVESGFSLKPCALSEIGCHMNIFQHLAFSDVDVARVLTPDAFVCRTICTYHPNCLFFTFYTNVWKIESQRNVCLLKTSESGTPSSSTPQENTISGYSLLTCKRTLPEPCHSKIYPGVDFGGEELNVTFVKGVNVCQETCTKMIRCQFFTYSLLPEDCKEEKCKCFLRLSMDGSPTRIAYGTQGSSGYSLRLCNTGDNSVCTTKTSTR
Procedure, shortened: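 Using fluorogenic PFR-AMC at 300 μM, cleavage by 500 pM human activated kallikrein ran 10 min at room temperature, read at 460 nm emission (380 nm excitation). Enzyme and compounds were first preincubated 30 min in 20 mM Tris pH 7.5, 150 mM NaCl, 1 mM EDTA, 0.1% PEG-400, 0.1% Triton X-100.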

plasma kallikrein = target: T1, plasma kallikrein (Homo sapiens, UniProt P03952); assay: Neat Human Plasma Assay (Fluorogenic Peptide), contact pathway-activated (FXIIa) plasma; format: biochemical; conditions: human citrated plasma 78% final; 10 nM human FXIIa; PFR-AMC substrate; 5 minutes; room temperature
T1 construct: PFR-AMC substrate
T1 sequence (P03952 20-638): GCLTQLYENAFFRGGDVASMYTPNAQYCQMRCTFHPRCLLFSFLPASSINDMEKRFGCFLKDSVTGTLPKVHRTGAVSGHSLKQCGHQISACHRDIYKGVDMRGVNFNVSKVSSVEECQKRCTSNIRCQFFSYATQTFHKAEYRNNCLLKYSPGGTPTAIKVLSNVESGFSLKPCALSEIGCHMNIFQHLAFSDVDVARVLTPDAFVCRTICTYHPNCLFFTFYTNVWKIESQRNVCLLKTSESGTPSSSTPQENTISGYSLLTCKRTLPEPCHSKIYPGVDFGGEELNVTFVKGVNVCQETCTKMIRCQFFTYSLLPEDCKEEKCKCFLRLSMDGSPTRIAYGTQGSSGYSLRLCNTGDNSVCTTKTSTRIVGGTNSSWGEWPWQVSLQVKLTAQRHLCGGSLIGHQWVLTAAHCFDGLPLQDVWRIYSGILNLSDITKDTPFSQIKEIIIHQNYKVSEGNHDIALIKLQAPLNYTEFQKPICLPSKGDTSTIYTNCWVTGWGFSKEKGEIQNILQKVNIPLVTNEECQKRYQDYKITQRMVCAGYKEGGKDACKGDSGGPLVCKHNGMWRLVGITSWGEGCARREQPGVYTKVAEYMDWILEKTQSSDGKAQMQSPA
Method: To analyze inhibition of plasma kallikrein in an ex vivo setting, the potency of compounds was measure in contact pathway-activated plasma assays. In a fluorogenic peptide substrate assay, test compounds dissolved in DMSO were added to sodium citrate collected human or rat plasma in a 96-well microplate. Alternatively, citrated plasma was collected from rats administered the compounds orally or by IV. 10 nM of human FXIIa (Enzyme Research Laboratories) diluted in PKa buffer (20 mM Tris-HCl, pH 7.5, 150 mM NaCl, 1 mM EDTA, 0.1% PEG-8000, and 0.1% Triton X-100) was added to the plasma, followed by the […] of the profluorescent, synthetic plasma kallikrein substrate PFR-AMC (also diluted in PKa buffer). Final plasma concentration in the reaction was 78%. Fluorescence was immediately monitored by excitation/emission wavelengths of 360 nm/480 nm respectively over a period of 5 minutes in a microplate reader. The resulting linear increase in fluorescence emission (reflecting PKa proteolysis of PFR-AMC substrate) was fit to extract a proteolytic rate (fluorescent units over time), and this rate was subsequently plotted against compound inhibitor concentration. Resulting plots were fit to a standard 4-parameter IC50/IC90 equation to determine min/max values, IC50/90, and slope. All experimental steps were performed at room temperature.

[2] = 500 pM activated kallikrein, read-out: Primary Dose Response Assay: Average EC50

Row | SMILES | EC50 [1, 2] [nM] | IC90 (plasma kallikrein) [nM] | EC50 ([1]; Primary Dose Response Assay: Average EC50, 500 pM activated kallikrein) [nM]
1 | Cc1cc2c(N)nccc2c(C)c1CNc1cc(OC(C)c2ccc(Cn3cccn3)cc2)cnn1 (single isomer, unassigned) [Example 276, (R*)-6-(((5-(1-(4-((1H-pyrazol-1-yl)methyl)phenyl)ethoxy)pyridazin-3-yl)amino)methyl)-5,7-dimethylisoquinolin-1-amine] | < 1 | ≤ 1000 | 
2 | Cc1cc2c(N)nccc2c(C)c1CNC(=O)c1cnn(Cc2ccc3ncc(Cl)cc3c2)c1 [Example 89, N-((1-amino-5,7-dimethylisoquinolin-6-yl)methyl)-1-((3-chloroquinolin-6-yl)methyl)-1H-pyrazole-4-carboxamide] | < 1 | ≤ 1000 | 
3 | Cc1cc2c(N)nccc2c(C)c1CNC(=O)c1cnn(Cc2cn3cc(Cl)ccc3n2)c1 [Example 101, N-((1-amino-5,7-dimethylisoquinolin-6-yl)methyl)-1-((6-chloroimidazo[1,2-a]pyridin-2-yl)methyl)-1H-pyrazole-4-carboxamide] | < 1 | ≤ 1000 | 
4 | Cc1cnc2ccc(Cn3cc(C(=O)NCc4c(C)cc5c(N)nccc5c4C)cn3)cc2c1 [Example 115, N-((1-amino-5,7-dimethylisoquinolin-6-yl)methyl)-1-((3-methylquinolin-6-yl)methyl)-1H-pyrazole-4-carboxamide] | < 1 | ≤ 1000 | 
5 | Cc1cc2c(N)nccc2c(C)c1CNC(=O)c1cnn(Cc2ccc(Cn3ccccc3=O)cc2)c1 [Example 192, N-((1-amino-5,7-dimethylisoquinolin-6-yl)methyl)-1-(4-((2-oxopyridin-1(2H)-y1)methyl)benzyl)-1H-pyrazole-4-carboxamide] | < 1 | ≤ 1000 | 
6 | Cc1cc2c(N)nccc2c(C)c1CNC(=O)c1cn(Cc2ccc(N3CCCC3)nc2)nc1C(F)(F)F [Example 194, N-((1-amino-5,7-dimethylisoquinolin-6-yl)methyl)-1-((6-(pyrrolidin-1-yl)pyridin-3-yl)methyl)-3-(trifluoromethyl)-1H-pyrazole-4-carboxamide] | 1 to 10 | > 5000 | 
7 | Cc1cc2c(N)nccc2c(C)c1CNC(c1cnn(Cc2ccc(Cn3ccccc3=O)cc2)c1)C(F)(F)F (stereo not drawn) [Example I-471, 1-(4-((4-(1-(((1-amino-5,7-dimethylisoquinolin-6-yl)methyl)amino)-2,2,2-trifluoroethyl)-1H-pyrazol-1-yl)methyl)benzyl)pyridin-2(1H)-one] | 10 to 100 |  | 
8 | Cc1cc2c(N)nccc2c(C)c1CNC(=O)c1cnn(Cc2ccc(CC(=O)N3CC4CC4C3)c(Cl)c2)c1 (stereo not drawn) [Example I-474, 1-(4-(2-(3-azabicyclo[3.1.0]hexan-3-yl)-2-oxoethyl)-3-chlorobenzyl)-N-((1-amino-5,7-dimethylisoquinolin-6-yl)methyl)-1H-pyrazole-4-carboxamide] | < 1 |  | 
9 | CCOC(=O)N(Cc1ccc(Cn2ccccc2=O)cc1)c1cc(NCc2c(C)cc3c(N)nccc3c2C)ncn1 [Example I-480, ethyl (6-(((1-amino-5,7-dimethylisoquinolin-6-yl)methyl)amino)pyrimidin-4-yl)(4-((2-oxopyridin-1(2H)-yl)methyl)benzyl)carbamate] | 100 to 1000 |  | 
10 | Cc1cc2c(N)nccc2c(C)c1CNC(=O)c1cn(Cc2cn3cc(C4CC4)ccc3n2)c2cccnc12 [Example I-485, N-((1-amino-5,7-dimethylisoquinolin-6-yl)methyl)-1-((6-cyclopropylimidazo[1,2-a]pyridin-2-yl)methyl)-1H-pyrrolo[3,2-b]pyridine-3-carboxamide] |  |  | 1 to 10

Now from value to compound:

Row | EC50 [1, 2] [nM] | IC90 (plasma kallikrein) [nM] | EC50 ([1]; Primary Dose Response Assay: Average EC50, 500 pM activated kallikrein) [nM] | SMILES
11 | 100 to 1000 |  |  | Cc1cc2c(N)nccc2c(C)c1CNC(=O)c1cnn(C(F)(F)c2ccccc2)c1 [Example I-472, N-((1-amino-5,7-dimethylisoquinolin-6-yl)methyl)-1-(difluoro(phenyl)methyl)-1H-pyrazole-4-carboxamide]
12 | < 1 |  |  | Cc1cc2c(N)nccc2c(C)c1CNC(=O)c1cnn(Cc2ccc(CC(=O)N3CCC3)c(Cl)c2)c1 [Example I-473, N-((1-amino-5,7-dimethylisoquinolin-6-yl)methyl)-1-(4-(2-(azetidin-1-yl)-2-oxoethyl)-3-chlorobenzyl)-1H-pyrazole-4-carboxamide]
13 | 1 to 10 |  |  | Cc1cc2c(N)nccc2c(C)c1CNC(=O)c1cnn(Cc2ccc(C3CCN(C)C3=O)cc2)c1 (stereo not drawn) [Example I-475, N-((1-amino-5,7-dimethylisoquinolin-6-yl)methyl)-1-(4-(1-methyl-2-oxopyrrolidin-3-yl)benzyl)-1H-pyrazole-4-carboxamide]
14 | 10 to 100 |  |  | Cc1cc2c(N)nccc2c(C)c1CNc1cncc(NCc2ccc(Cn3cccn3)cc2)n1 [Example I-476, N^2-(4-((1H-pyrazol-1-yl)methyl)benzyl)-N^6-((1-amino-5,7-dimethylisoquinolin-6-yl)methyl)pyrazine-2,6-diamine]
15 | < 1 |  |  | Cc1cc2c(N)nccc2c(C)c1CNC(=O)c1cn(Cc2ccc(CC(=O)N3CC4CC4C3)cc2)nc1F (stereo not drawn) [Example I-477, 1-(4-(2-(3-azabicyclo[3.1.0]hexan-3-yl)-2-oxoethyl)benzyl)-N-((1-amino-5,7-dimethylisoquinolin-6-yl)methyl)-3-fluoro-1H-pyrazole-4-carboxamide]
16 | 1 to 10 |  |  | Cc1cc2c(N)nccc2c(C)c1CNc1nccc(OCc2ccc(Cn3ccccc3=O)cc2)n1 [Example I-478, 1-(4-(((2-(((1-amino-5,7-dimethylisoquinolin-6-yl)methyl)amino)pyrimidin-4-yl)oxy)methyl)benzyl)pyridin-2(1H)-one]
17 | < 1 |  |  | Cc1cc2c(N)nccc2c(C)c1CNC(=O)c1cn(Cc2ccc(CC(=O)N3CC4CC4C3)cc2)cc1F (stereo not drawn) [Example I-479, 1-(4-(2-(3-azabicyclo[3.1.0]hexan-3-yl)-2-oxoethyl)benzyl)-N-((1-amino-5,7-dimethylisoquinolin-6-yl)methyl)-4-fluoro-1H-pyrrole-3-carboxamide]
18 | > 1000 |  |  | CCOC(=O)Nc1nccc2c(C)c(CNc3cc(N(Cc4ccc(Cn5ccccc5=O)cc4)C(=O)OCC)ncn3)c(C)cc12 [Example I-481, ethyl (6-(((1-((ethoxycarbonyl)amino)-5,7-dimethylisoquinolin-6-yl)methyl)amino)pyrimidin-4-yl)(4-((2-oxopyridin-1(2H)-yl)methyl)benzyl)carbamate]
19 | < 1 |  |  | C/C=C(/c1ccc(CNc2cc(NCc3c(C)cc4c(N)nccc4c3C)ncn2)cc1)n1cccn1 [Example I-483, (Z)—N^4-(4-(1-(1H-pyrazol-1-yl)prop-1-en-1-yl)benzyl)-N^6-((1-amino-5,7-dimethylisoquinolin-6-yl)methyl)pyrimidine-4,6-diamine]
20 | < 1 |  |  | CCC(c1ccc(CNc2cc(NCc3c(C)cc4c(N)nccc4c3C)ncn2)cc1)n1cccn1 (stereo not drawn) [Example I-484, N^4-(4-(1-(1H-pyrazol-1-yl)propyl)benzyl)-N^6-((1-amino-5,7-dimethylisoquinolin-6-yl)methyl)pyrimidine-4,6-diamine]
21 | 1 to 10 |  |  | Cc1cc2c(N)nccc2c(C)c1CNc1cc(OCc2nc3ccc(C4CC4)cn3n2)nc(C(=O)O)n1 [Example I-486, 4-(((1-amino-5,7-dimethylisoquinolin-6-yl)methyl)amino)-6-((6-cyclopropyl-[1,2,4]triazolo[1,5-a]pyridin-2-yl)methoxy)pyrimidine-2-carboxylic acid]
